Patent US8158152B2, “Lyophilization process and products obtained thereby” (SciDose LLC, priority 2005, dated 2012)

Assays:
[1] = Solubility as stated in words; assay type: physicochemical; settings: in the presence of small quantities of HCl
[2] = cited from earlier work

CCC(C)n1ncn(-c2ccc(N3CCN(c4ccc(OCC5COC(Cn6cncn6)(c6ccc(Cl)cc6Cl)O5)cc4)CC3)cc2)c1=O (stereo not shown) [itraconazole]
solubility in non-aqueous solvents (e.g. THF) [1]: high concentrations of itraconazole can be dissolved | solubility in solvents, as generally considered ([2]; general knowledge): soluble in methylene chloride only

O=P1(N(CCCl)CCCl)NCCCO1 (stereo not shown) [cyclophosphamide]
solubility in ethanol ([2]; ethanol): highly soluble | solubility in water ([2]; water): sparingly soluble
